Source: ChEMBL document CHEMBL5385893, “Bestatin analogs-4-quinolinone hybrids as antileishmanial hits: Design, repurposing rational, synthesis, in vitro and in silico studies” (Eur J Med Chem, 2023)
Active and inactive are the calls of the source. The rule behind the calls is not given here.

Experiments:
[1] = system: Leishmania donovani; assay: Antileishmanial activity against promastigotes-based model of Leishmania donovani MHOM/SD/62/1S-CL2D assessed as growth inhibition by measuring metabolism of resazurin to resorufin by aerobic respiration at 50 uM measured after 3 days relative to control; format: functional; conditions: for inhibition: time 3.0 day; for inhibition at 50 µM: 72 h, time 3 day
[2] = system: Leishmania donovani; assay: Antileishmanial activity against promastigotes-based model of Leishmania donovani MHOM/SD/62/1S-CL2D assessed as growth inhibition by measuring metabolism of resazurin to resorufin by aerobic respiration at 25 uM measured after 3 days relative to control; format: functional; conditions: for inhibition: time 3.0 day; for inhibition at 25 µM: 72 h, time 3 day
[3] = Cytotoxicity against human THP-1 cells assessed as cell death by measuring metabolism of resazurin to resorufin measured after 3 days; format: toxicity, cell-based; conditions: time 3 day
[4] = Cytotoxicity against human HEK293T cells assessed as cell death by measuring metabolism of resazurin to resorufin measured after 3 days; format: toxicity, cell-based, HEK-293T; conditions: time 3 day

CCNC(=O)C(=O)[C@H](Cc1ccccc1)NC(=O)c1[nH]c2ccccc2c(=O)c1C
inhibition [1]: inactive | inhibition [2]: inactive

Cc1c(C(=O)N[C@@H](Cc2ccccc2)C(=O)C(=O)NCc2ccccc2)[nH]c2ccccc2c1=O
inhibition at 50 µM [1]: 22% | inhibition at 25 µM [2]: 3%

Cc1c(C(=O)N[C@@H](Cc2ccccc2)[C@@H](O)C(=O)NCCc2ccccc2)[nH]c2ccccc2c1=O
inhibition [1]: inactive | inhibition [2]: inactive

Cc1c(C(=O)N[C@@H](Cc2ccccc2)[C@@H](O)C(=O)NC(C)C)[nH]c2ccccc2c1=O
inhibition at 50 µM [1]: 4% | inhibition [2]: inactive

Cc1c(C(=O)N[C@@H](Cc2ccccc2)C(=O)C(=O)NCCc2ccccc2)nc2ccccc2c1O
inhibition at 50 µM [1]: 50% | inhibition at 25 µM [2]: 38% | CC50 at 72 h [3]: > 200 µM | CC50 at 72 h [4]: 107 µM

COc1ccc(CCNC(=O)C(=O)[C@H](Cc2ccccc2)NC(=O)c2[nH]c3ccccc3c(=O)c2C)cc1
inhibition at 50 µM [1]: 23% | inhibition [2]: inactive

Cc1c(C(=O)N[C@@H](Cc2ccccc2)C(=O)C(=O)NCCc2ccccn2)[nH]c2ccccc2c1=O
inhibition [1]: inactive | inhibition [2]: inactive

Cc1c(C(=O)N[C@@H](Cc2ccccc2)[C@@H](O)C(N)=O)[nH]c2ccccc2c1=O
inhibition at 50 µM [1]: 51% | inhibition at 25 µM [2]: 17% | CC50 at 72 h [3]: > 200 µM | CC50 at 72 h [4]: > 200 µM

Cc1c(C(=O)N[C@@H](Cc2ccccc2)[C@@H](O)C(=O)NCc2ccc(F)cc2)[nH]c2ccccc2c1=O
inhibition at 50 µM [1]: 8% | inhibition [2]: inactive

Cc1c(C(=O)N[C@@H](Cc2ccccc2)[C@@H](O)C(=O)NCc2ccccn2)[nH]c2ccccc2c1=O
inhibition at 50 µM [1]: 12% | inhibition [2]: inactive

COc1ccc(CNC(=O)[C@H](O)[C@H](Cc2ccccc2)NC(=O)c2[nH]c3ccccc3c(=O)c2C)cc1OC
inhibition at 50 µM [1]: 23% | inhibition [2]: inactive

CCNC(=O)[C@H](O)[C@H](Cc1ccccc1)NC(=O)c1[nH]c2ccccc2c(=O)c1C
inhibition at 50 µM [1]: 1% | inhibition [2]: inactive

Cc1c(C(=O)N[C@@H](Cc2ccccc2)C(=O)C(N)=O)[nH]c2ccccc2c1=O
inhibition [1]: inactive | inhibition [2]: inactive

COc1ccc(CNC(=O)[C@H](O)[C@H](Cc2ccccc2)NC(=O)c2[nH]c3ccccc3c(=O)c2C)cc1
inhibition at 50 µM [1]: 16% | inhibition [2]: inactive

COc1ccc(CNC(=O)C(=O)[C@H](Cc2ccccc2)NC(=O)c2[nH]c3ccccc3c(=O)c2C)cc1
inhibition at 50 µM [1]: 9% | inhibition [2]: inactive

COc1ccc(CCNC(=O)[C@H](O)[C@H](Cc2ccccc2)NC(=O)c2[nH]c3ccccc3c(=O)c2C)cc1
inhibition at 50 µM [1]: 13% | inhibition [2]: inactive

Cc1c(C(=O)N[C@@H](Cc2ccccc2)C(=O)C(=O)NCc2ccccn2)[nH]c2ccccc2c1=O
inhibition [1]: inactive | inhibition [2]: inactive

Cc1c(C(=O)N[C@@H](Cc2ccccc2)C(=O)C(=O)NC(C)C)[nH]c2ccccc2c1=O
inhibition [1]: inactive | inhibition [2]: inactive

Cc1c(C(=O)N[C@@H](Cc2ccccc2)C(=O)C(=O)NCc2ccc(F)cc2)[nH]c2ccccc2c1=O
inhibition [1]: inactive | inhibition [2]: inactive

CCCCCCCC/C=C\CCCCCCCCCCCCOP(=O)([O-])OCCC[N+](C)(C)C
inhibition at 50 µM [1]: 108% | inhibition at 25 µM [2]: 106% | CC50 at 72 h [3]: 2 µM | CC50 at 72 h [4]: 28 µM

Cc1c(C(=O)N[C@@H](Cc2ccccc2)[C@@H](O)C(=O)NCCc2ccccn2)[nH]c2ccccc2c1=O
inhibition at 50 µM [1]: 31% | inhibition at 25 µM [2]: 8%

COc1ccc(CNC(=O)C(=O)[C@H](Cc2ccccc2)NC(=O)c2[nH]c3ccccc3c(=O)c2C)cc1OC
inhibition at 50 µM [1]: 38% | inhibition [2]: inactive

CNC(=O)C(=O)[C@H](Cc1ccccc1)NC(=O)c1[nH]c2ccccc2c(=O)c1C
inhibition [1]: inactive | inhibition [2]: inactive

Cc1c(C(=O)N[C@@H](Cc2ccccc2)[C@@H](O)C(=O)NCc2ccccc2)[nH]c2ccccc2c1=O
inhibition at 50 µM [1]: 91% | inhibition at 25 µM [2]: 53% | CC50 at 72 h [3]: 93 µM | CC50 at 72 h [4]: > 200 µM

CNC(=O)[C@H](O)[C@H](Cc1ccccc1)NC(=O)c1[nH]c2ccccc2c(=O)c1C
inhibition at 50 µM [1]: 22% | inhibition at 25 µM [2]: 1%
